Reference: PMC10121968, “Fosgonimeton, a Novel Positive Modulator of the HGF/MET System, Promotes Neurotrophic and Procognitive Effects in Models of Dementia” (Neurotherapeutics, 2022)
Non-standard residues stand in square brackets, D forms with d. Residues, ends and D or L forms follow the SMILES beside them. *: point of attachment. Hexanoyl = CCCCCC(=O)*; Ahx = NCCCCCC(=O)O

Legend:
[1] = Fosgonimeton CNS distribution in rats; type: in vivo, rat; conditions: 12 mg/kg fosgonimeton SC
Procedure: Three male Sprague Dawley rats per time point were given 12 mg/kg fosgonimeton via SC injection. At 0.16, 0.5, and 1 h after dosing, animals were humanely killed and perfused with chilled saline. Brains were collected and dissected into the following brain regions: whole brain, striatum, olfactory bulb, hippocampus, cerebellum, cerebral cortex, and brainstem. Brain regions were homogenized and the exposures of fosgonimeton and fosgo-AM were determined by LC/MS/MS.

[2] = Plasma PK in rats after SC injection; type: in vivo, rat
Procedure: Four male rats were treated with 10 mg/kg fosgo-AM in DMSO via SC injection. Blood was serially collected at 0.08, 0.25, 0.5, 1, 2, and 4 h after dosing. Plasma was obtained by centrifugation with 2% disodium ethylenediaminetetraacetic acid (EDTA) as an anticoagulant. Plasma samples were precipitated with acetonitrile containing internal standard, and the concentration of fosgo-AM was determined by LC/MS/MS.
This study was conducted as described in the “Fosgo-AM PK in Rats” section with the following changes: animals were given 12 mg/kg fosgonimeton in saline with 0.1% glycine via SC injection, and a dose-linear correction was applied to normalize the dose to 10 mg/kg for comparison with the fosgo-AM study. Sample concentrations of both fosgonimeton and fosgo-AM were determined.

[3] = tested on: IL-1β; experiment: IL-1β release in LPS-challenged THP-1 macrophages (HTRF); type: cell-based, human; conditions: 1 µM, 20 min pretreatment, LPS 50 ng/mL 24 h, vs LPS + vehicle
Procedure: To determine the effect of fosgo-AM on LPS-induced cytokine release, we sought to determine the levels of interleukin-1β (IL-1β), interleukin-6 (IL-6), and tumor necrosis factor-α (TNF-α) in LPS-challenged THP-1–differentiated macrophages in the presence and absence of fosgo-AM. THP-1 monocytes were grown at 37 °C, 5% CO2 in Roswell Park Memorial Institute (RPMI) medium + 10% FBS until approximately 80% confluent. Cells were seeded in polystyrene-treated 96-well cell culture plates at approximately 50,000 cells/well in 100-µL complete media. 100 µL Phorbol myristate acetate was then added to each well for a final concentration of 100 ng/mL. The plate was then incubated for 3 days at 37 °C, 5% CO2 to prime the monocytes into macrophages. […] For cytokine quantification, cell culture supernatant was assayed by HTRF kits to assess levels of IL-1β (Human IL-1β kit, #62HIL1BPEG, Cisbio, Codolet, France) and IL-6 (Human IL-6 kit, 62HIL06PET, Cisbio, Codolet, France), and by ELISA (Human TNF-α ELISA kit, KHC3011, ThermoFisher, Waltham, Massachusetts) to determine the levels of TNF-α. […] Fluorescence emission at 2 different wavelengths (665 nm and 620 nm) were measured on an Envision plate reader (PerkinElmer, Waltham, Massachusetts), and HTRF ratio of the acceptor and donor emission signals for each well was calculated as follows: HTRF ratio = (665 nm/620 nm) × 10,000. […]

[4] = Fosgo-AM solubility (turbidity in PBS); type: physicochemical; conditions: 1% DMSO, 37 °C, 2 h
Procedure: A fosgo-AM dilution series was produced in DMSO. Compound stocks were added in triplicate to a 96-well plate containing PBS, resulting in 1% DMSO concentration, and were incubated at 37 °C for 2 h. Turbidity in the sample wells was determined by absorbance at 620 nm.

time to maximum concentration (Tmax) in brain regions ([1]; all regions): 10 min
Cmax, ng/g ± SEM ([1]; brainstem): 58.3 ± 11.3 ng/g
Tmax ([1]; brainstem): 9.6 min
Cmax, ng/g ± SEM ([1]; cerebellum): 23.8 ± 4.1 ng/g
Tmax ([1]; cerebellum): 9.6 min
Cmax, ng/g ± SEM ([1]; cerebral cortex): 36.5 ± 12.0 ng/g
Tmax ([1]; cerebral cortex): 9.6 min
Cmax, ng/g ± SEM ([1]; hippocampus): 49.8 ± 30.5 ng/g
Tmax ([1]; hippocampus): 9.6 min
Cmax, ng/g ± SEM ([1]; olfactory bulb): 43.7 ± 7.3 ng/g
Tmax ([1]; olfactory bulb): 9.6 min
Cmax, ng/g ± SEM ([1]; striatum): 24.1 ± 12.8 ng/g
Tmax ([1]; striatum): 9.6 min
Cmax, ng/g ± SEM ([1]; whole brain): 31.9 ± 23.8 ng/g
Tmax ([1]; whole brain): 9.6 min
fosgo-AM maximum concentration (Cmax) in plasma ([2]; after SC delivery of fosgonimeton (12 mg/kg, normalized to 10 mg/kg), after metabolism): 1198 ng/mL
fosgo-AM maximum concentration (Cmax) in plasma ([2]; after direct SC delivery of fosgo-AM 10 mg/kg): 329 ng/mL
maximum aqueous solubility [4]: less than 50 μg/mL
SMILES: CCCCCC(=O)N[C@@H](Cc1ccc(O)cc1)C(=O)N[C@H](C(=O)NCCCCCC(N)=O)[C@@H](C)CC [fosgo-AM] (Hexanoyl-Tyr-Ile-[Ahx]-NH2)
IL-1β release [3]: significant decrease
